Measured values published in patent US8470870B2, “Solid forms of an anti-HIV phosphoindole compound” (Idenix Pharmaceuticals, Inc., priority 2008, dated 2013).
Converted amounts (≈) assume the structure as drawn.

Tests used:
[1] = test system: several serine proteases like S. griseus proteases A and B, α-chymotrypsin, chymase, and subtilisin; conditions: cited from earlier work
[2] = Apparent kinetic solubility in 2-butanol of different crystalline forms; format: physicochemical; conditions: dry 2-butanol; for Apparent Kinetic Solubility: 25° C.; for relative solubility among Forms I, VIII and IX: ambient temperature
Procedure: Milligram size quantities of each sample were placed into a vial. Solvent was added and the vials were vortexed for a few minutes, followed by visual observation for remaining solids. The solvent was incrementally added until the solids were dissolved, or a maximum volume of solvent was added and the experiment was terminated. Parallel to that, a suspension is made and filtered, the solids was examined by XRD to determine if a phase transformation occurs. Solubility experiments were performed to determine the solubility of the different polymorphic forms. […] Solubility data were collected on polymorphs I, VIII, and IX. Two of the forms were anhydrous and one was hydrated. […] Excess solids were placed in a test tube, solvent was then added in the tube, vortexed, and examined visually to determine if all the solids had dissolved. Attempts were made to prepare saturated or nearly saturated solutions of each polymorphic form by exposing excess solids of each polymorph to dry 2-butanol.

[3] = Competitive slurry experiments; format: physicochemical
Procedure: Competitive slurry experiments were performed by mixing excess amounts of the polymorphic forms together in different solvents and agitating isothermally. These types of slurry experiments were used in attempts to determine which phase is more thermodynamically stable under the conditions used. Slurry experiments were generally used to examine the energy relationship between Form I and Form IX, and to examine how these two forms may interconvert with the monohydrate (Form VIII).

[4] = Solubility in recrystallization solvents (Panel 1); format: physicochemical; conditions: organic solvent or mixture, thermodynamic from solid, saturation temp. 25 °C
Procedure: Milligram size quantities of each sample were placed into a vial. Solvent was added and the vials were vortexed for a few minutes, followed by visual observation for remaining solids. The solvent was incrementally added until the solids were dissolved, or a maximum volume of solvent was added and the experiment was terminated. Parallel to that, a suspension is made and filtered, the solids was examined by XRD to determine if a phase transformation occurs. Saturated solutions were prepared by agitating excess test material in contact with the various solvent systems at the saturation temperature. The mother liquor was separated from the residual solids by filtration. The mother liquor was then heated above the saturation temperature (overheated) to dissolve any remaining solids. The temperature of the solutions was then adjusted to the growth temperature and a controlled nitrogen shear flow was introduced to begin solvent evaporation.

[5] = Hydration experiment at 95% RH; format: physicochemical; conditions: 18 days
Procedure: Hydration experiments were performed on (2-carbamoyl-5-chloro-1H-indol-3-yl)-[3-((E)-2-cyano-vinyl)-5-methyl-phenyl]-(R)-phosphinic acid methyl ester Form III sample. A known weight of sample was exposed to a 95% RH environment using a saturated solution of […].

[6] = Non-competitive slurry experiments in neat solvents; format: physicochemical
Procedure: Noncompetitive slurry experiments were performed. These experiments rely on solubility differences of different polymorphic forms (if the compound exists in different polymorphic forms). […] Essentially, when a solid is dissolved in a (slurry) solvent, a saturated solution eventually results. The solution is saturated with respect to the polymorphic form dissolved. […] In addition, noncompetitive slurry experiments are often useful in identifying solvents that form solvates with the compound. […] The solids were mechanically filtered and analyzed by XRD to determine the resulting form. To avoid possible desolvation or physical change after isolation, the samples were not subjected to drying before X-ray analysis.

Annealing experiment = format: physicochemical; conditions: 14 days at 46° C.
Procedure: In addition to the solvent recrystallization experiments and slurry experiments, annealing experiments were performed. These experiments entailed looking for structural changes as a function of temperature. This was accomplished by using variable-temperature XRD, and variable temperature ovens, and DSC experiments.

[7] = Form I/Form VIII competitive slurry in water-methanol mixtures; format: physicochemical
Procedure: Additional competitive slurry experiments were performed by mixing excess amounts of polymorphic forms in a solvent system and agitating the mixture isothermally. The competitive slurry experiments were used in attempts to identify the critical water activity levels for the interconversion of Form I (anhydrate target form) and Form VIII (monohydrate form). This was used to identify the water content range that can be used during processing to successfully isolate Form I in a reproducible manner. In each competitive slurry experiment, an excess of Form I and Form VIII of known weight was added to a water-methanol mixture. The suspension was slurred at ambient temperature (22° C.) or 45° C. continuously for up to 12 days in order to obtain thermodynamic equilibrium. Excess solids were collected at different slurry times by centrifugation, and then characterized by XRD. To avoid possible desolvation or physical change after isolation, the samples were not subjected to drying before X-ray analysis.

[8] = Solubility in water (preliminary, in words); format: physicochemical
Procedure: Milligram size quantities of each sample were placed into a vial. Solvent was added and the vials were vortexed for a few minutes, followed by visual observation for remaining solids. The solvent was incrementally added until the solids were dissolved, or a maximum volume of solvent was added and the experiment was terminated. Parallel to that, a suspension is made and filtered, the solids was examined by XRD to determine if a phase transformation occurs. Solubility experiments were performed to determine the solubility of the different polymorphic forms. […] Solubility data were collected on polymorphs I, VIII, and IX. Two of the forms were anhydrous and one was hydrated.

Molecule: Eglin c
- potency of inhibition [1]: nanomolar potency inhibition

Molecule: CO[P@](=O)(c1cc(C)cc(/C=C/C#N)c1)c1c(C(N)=O)[nH]c2ccc(Cl)cc12 [Form VIII, (2-carbamoyl-5-chloro-1H-indol-3-yl)-[3-((E)-2-cyano-vinyl)-5-methyl-phenyl]-(R)-phosphinic acid methyl ester]
- Apparent Kinetic Solubility ([2]; listed as VIII): 310 µg/mL
- critical water activity level for Form I/Form VIII interconversion ([3]; methanol/water bridging experiments): 40-60 vol % water

Molecule: CO[P@](=O)(c1cc(C)cc(/C=C/C#N)c1)c1c(C(N)=O)[nH]c2ccc(Cl)cc12 [compound of Formula I, (2-carbamoyl-5-chloro-1H-indol-3-yl)-[3-((E)-2-cyano-vinyl)-5-methyl-phenyl]-(R)-phosphinic acid methyl ester]
- solubility ([4]; 1-propanol): ~2670 µg/mL
- solubility ([4]; 2-butanol): < 2670 µg/mL
- solubility ([4]; 2-propanol): < 2670 µg/mL
- solubility ([4]; ethanol): 3640 µg/mL
- solubility ([4]; methanol): 10000 µg/mL
- solubility ([4]; nitromethane): 5710 µg/mL

Molecule: COP(=O)(c1cc(C)cc(/C=C/C#N)c1)c1c(C(N)=O)[nH]c2ccc(Cl)cc12 (stereo not shown) [Form IX, (2-carbamoyl-5-chloro-1H-indol-3-yl)-[3-((E)-2-cyano-vinyl)-5-methyl-phenyl]phosphinic acid methyl ester]
- solubility kinetic ([2]; 25 °C, organic solvent or mixture, thermodynamic from solid): 160 µg/mL (≈ 387 µM)
- relative solubility among Forms I, VIII and IX [2]: lowest solubility
- thermodynamic stability among forms ([3]; ambient temperature and pressure): most stable form
- form after slurry in water ([3]; water, several days): remained unchanged

Molecule: CO[P@](=O)(c1cc(C)cc(/C=C/C#N)c1)c1c(C(N)=O)[nH]c2ccc(Cl)cc12 [Form III]
- XRD pattern after exposure to humidity [5]: no changes in XRD pattern
- form after slurry (ripening) in methanol ([6]; neat methanol, about 1 day, ambient temperature): converted to Form I
- form after non-competitive slurry in water ([6]; water, 3 days): resulted in Form VIII
- XRD pattern after annealing (Annealing experiment): no change in the XRD pattern

Molecule: CO[P@](=O)(c1cc(C)cc(/C=C/C#N)c1)c1c(C(N)=O)[nH]c2ccc(Cl)cc12 [Form I, (2-carbamoyl-5-chloro-1H-indol-3-yl)-[3-((E)-2-cyano-vinyl)-5-methyl-phenyl]-(R)-phosphinic acid methyl ester]
- Apparent Kinetic Solubility ([2]; listed as I): 1810 µg/mL
- relative solubility among Forms I, VIII and IX [2]: highest solubility
- water content level needed to stabilize Form I (anhydrate) [7]: ≤ 24 wt %
- solubility in water [8]: practically insoluble
- XRD pattern after slurry in water ([6]; water, ambient temperature and 50° C., up to 6 days): did not show changes in XRD pattern
